These results are taken from patent US5756545A, “Biphenysulfonamide matrix metal alloproteinase inhibitors” (priority 1997, dated 1998).

What all share (type): biochemical
Experiment [1] addresses T1, full-length collagenase (Homo sapiens, UniProt P03956).
T1 construct: full-length collagenase hydrolysis of thiopeptolide substrate (FLC)
T1 sequence (P03956 100-469): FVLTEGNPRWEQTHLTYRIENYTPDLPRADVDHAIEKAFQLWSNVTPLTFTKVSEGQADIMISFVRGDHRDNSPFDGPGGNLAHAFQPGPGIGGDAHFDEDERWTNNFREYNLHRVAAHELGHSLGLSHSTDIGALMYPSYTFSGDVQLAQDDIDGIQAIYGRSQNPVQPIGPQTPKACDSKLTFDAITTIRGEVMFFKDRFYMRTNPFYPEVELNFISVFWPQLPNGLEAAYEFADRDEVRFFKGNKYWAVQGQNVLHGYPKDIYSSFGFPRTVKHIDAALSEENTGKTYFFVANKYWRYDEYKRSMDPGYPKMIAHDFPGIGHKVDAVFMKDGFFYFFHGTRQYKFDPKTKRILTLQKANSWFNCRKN
In words: full-length collagenase hydrolysis of thiopeptolide substrate (FLC). The following applies: full-length enzyme. The text has this: The compounds were additionally evaluated for their ability to inhibit full-length collagenase hydrolysis of thiopeptolide substrate (FLC) and full-length gelatinase B (FLGB) hydrolysis of thiopeptolide.

Experiment [2] deals with gelatinase A-catalytic domain. In words: gelatinase A catalytic domain hydrolysis of thiopeptolide, GA CD (T). The following applies: thiopeptolide substrate. The text has this:
(§1) Table I below presents inhibitory activity for representative invention compounds of Formula I. In the table, GA CD (T) refers to gelatinase A-catalytic domain hydrolysis of thiopeptolide substrate; GA CD (Gel) refers to gelatinase A-catalytic domain hydrolysis of gelatin substrate; SCD (T) refers to stromelysin catalytic domain hydrolysis of thiopeptolide.

Experiment [3] deals with gelatinase A-catalytic domain. In words: gelatinase A catalytic domain hydrolysis of gelatin, GA CD (Gel). The following applies: gelatin substrate.
Text: as §1

Experiment [4] deals with T2, stromelysin catalytic domain (Homo sapiens, UniProt P08254).
T2 construct: stromelysin catalytic domain hydrolysis of thiopeptolide
T2 sequence (P08254 100-272 limits assumed): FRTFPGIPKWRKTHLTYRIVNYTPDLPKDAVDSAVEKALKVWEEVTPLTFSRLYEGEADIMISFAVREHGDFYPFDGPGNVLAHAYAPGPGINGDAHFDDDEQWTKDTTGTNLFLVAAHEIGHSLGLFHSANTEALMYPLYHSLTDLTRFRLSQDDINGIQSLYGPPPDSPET
In words: stromelysin catalytic domain hydrolysis of thiopeptolide, SCD (T). The following applies: thiopeptolide substrate.
Text: as §1

The structures appear in SMILES notation.

For the molecule `CC(C)[C@H](NS(=O)(=O)c1ccc(-c2ccc(Cl)cc2)cc1)C(=O)O` [Example 2, (S)-2-(4'-Chloro-biphenyl-4-sulfonylamino)-3-methyl-butyric Acid], in experiment [1], the IC50 (commonly the midpoint of a concentration-inhibition curve) is 7500 nM. `CC(C)[C@H](NS(=O)(=O)c1ccc(-c2ccc(C#N)cc2)cc1)C(=O)O` [Example 5, (S)-2-(4'-Cyano-biphenyl-4-sulfonylamino)-3-methyl-butyric Acid]: the results for the concentration for half-maximal inhibition (IC50) in experiment [2] and in experiment [3] were 32 nM and 157 nM, respectively. With `CC(C)[C@H](NS(=O)(=O)c1ccc(-c2cccc(Br)c2)cc1)C(=O)O` [Example 7, (S)-2-(3'-Bromo-biphenyl-4-sulfonylamino)-3-methyl-butyric Acid], the IC50 amounted to 731 nM in experiment [2] and 1300 nM in experiment [3]. In the case of `CC(C)[C@H](NS(=O)(=O)c1ccc(-c2ccc(Br)cc2F)cc1)C(=O)O` [Example 8, (S)-2-(4'-Bromo-2'-fluoro-biphenyl-4-sulfonylamino)-3-methyl-butyric Acid], the IC50 in experiment [2] came out at 6 nM; in experiment [3] it was 19 nM. `O=C(O)[C@H](Cc1ccccc1)NS(=O)(=O)c1ccc(-c2ccc(Br)cc2)cc1` [Example 10, (S)-2-(4'-Bromo-biphenyl-4-sulfonylamino)-3-phenyl-propionic Acid]: the half-inhibitory concentration (IC50) in experiment [2] was 26 nM; in experiment [3] it was 45 nM. `O=C(O)CNS(=O)(=O)c1ccc(-c2ccc(Br)cc2)cc1` [Example 12, (4'-Bromo-biphenyl-4-sulfonylamino)-acetic Acid]: the IC50 in experiment [2] stood at 21 nM; in experiment [3], 79 nM.

In the case of `C[C@H](NS(=O)(=O)c1ccc(-c2ccc(Br)cc2)cc1)C(=O)O` [Example 13, (S)-2-(4'-Bromo-biphenyl-4-sulfonylamino)-propionic Acid], the values for the 50% inhibitory concentration (IC50) in experiment [2] and in experiment [3] were 19 nM and 22 nM, respectively.

Turning to `CC(C)C[C@H](NS(=O)(=O)c1ccc(-c2ccc(Br)cc2)cc1)C(=O)O` [Example 14, (S)-2-(4'-Bromo-biphenyl-4-sulfonylamino)-4-methyl-pentanoic Acid], the 50% inhibitory concentration (IC50) in experiment [2] was 15 nM; in experiment [3], 29 nM. Regarding `COc1ccc(-c2ccc(S(=O)(=O)N[C@H](C(=O)O)C(C)C)cc2)cc1` [Example 15, (S)-2-(4'-Methoxy-biphenyl-4-sulfonylamino)-3-methyl-butyric Acid], the IC50 in experiment [2] stood at 2 nM; in experiment [3] it was 14 nM. For the molecule `CC(C)[C@H](NS(=O)(=O)c1ccc(-c2ccc(F)cc2)cc1)C(=O)O` [Example 16, (S)-2-(4'-Fluoro-biphenyl-4-sulfonylamino)-3-methyl-butyric Acid], the values for the half-inhibitory concentration (IC50) in experiment [2] and in experiment [3] were 51 nM and 94 nM, respectively. As to `CC(C)[C@H](NS(=O)(=O)c1ccc(-c2ccc(C(F)(F)F)cc2)cc1)C(=O)O` [Example 19, (S)-3-Methyl-2-(4'-trifluoromethyl-biphenyl-4-sulfonylamino)-butyric Acid], it took 14 nM to reach half-maximal inhibition in experiment [4] (IC50).
